# Assay results from US10501498B2 (BGI SHENZHEN, priority 2014, dated 2019).
# Test system: HVA calcium channel
# Assay type: cell-based, rat
smiles,measurement,setting,value
"COC(=O)C1=C(C)NC(C)=C(C(=O)OC)C1c1ccccc1[N+](=O)[O-] [Nifedipine, reference compound]",current after loading,,−734.31 pA
same,inhibition rate,10 µM,50.09%
